Where two headings read alike, the source gives them in different places.
Key:
Type in all cases: cell-based
E. faecalis = assay: Broth dilution MIC determination (CLSI) against E. faecalis strains; conditions: for MIC: Enterococcus faecalis; for MIC E. faecalis ATCC29212: ATCC29212, Strain No. MP-24
Text: (§1) Minimum inhibitory concentrations (MICs) for macrolides described herein have been determined for unique strains of S. aureus, S. pneumoniae, S. pyogenes, E. faecalis, E. coli, A. baumannii, K. pneumoniae, P. aeruginosa, and H. influenzae, including several multidrug-resistant strains, with a special focus on macrolide resistant mechanisms. Azithromycin and solithromycin were included as control compounds. CLSI standard procedures for broth dilution MIC determination were used. Data for exemplary compounds described herein is shown in Tables M1-M7 and in Tables N1-N4.

S. pneumoniae = assay: Broth dilution MIC determination (CLSI) against S. pneumoniae strains; conditions: for MIC: Streptococcus pneumoniae; for MIC S. pneumoniae ATCC49619: ATCC49619, Strain No. MP-21
Text: as §1

K. pneumoniae = assay: Broth dilution MIC determination (CLSI) against K. pneumoniae strains; conditions: for MIC: Klebsiella pneumoniae; for MIC K. pneumoniae ATCC10031: ATCC10031, Strain No. MP-14
Text: Minimum inhibitory concentrations (MICs) for macrolides described herein have been determined for unique strains of S. aureus, S. pneumoniae, S. pyogenes, E. faecalis, E. coli, A. baumannii, K. pneumoniae, P. aeruginosa, and H. influenzae, including several multidrug-resistant strains, with a special focus on macrolide resistant mechanisms. Azithromycin and solithromycin were included as control compounds. CLSI standard procedures for broth dilution MIC determination were used.

S. aureus = assay: Broth dilution MIC determination (CLSI) against S. aureus strains; conditions: for MIC: Staphylococcus aureus; for MIC S. aureus ATCC29213: ATCC29213, Strain No. MP-12; for MIC S. aureus ATCCBAA-977: ATCCBAA-977, Strain No. MP-17; for MIC S. aureus (MRSA) ermA phenotype: Strain No. MP-620 UNT-146
Text: as §1

E. coli = assay: Broth dilution MIC determination (CLSI) against E. coli strains; conditions: for MIC: Escherichia coli; for MIC E. coli ATCC25922: ATCC25922, Strain No. MP-4
Text: as §1

P. aeruginosa = assay: Broth dilution MIC determination (CLSI) against P. aeruginosa strains; conditions: for MIC: Pseudomonas aeruginosa; for MIC P. aeruginosa PAO1: PAO1, Strain No. MP-7; for MIC P. aeruginosa PAO1:mex: Strain No. MP-8
Text: as §1

S. pyogenes = assay: Broth dilution MIC determination (CLSI) against S. pyogenes strains; conditions: for MIC: Streptococcus pyogenes; for MIC S. pyogenes ATCC19615: ATCC19615, Strain No. MP-19
Text: as §1

A. baumannii = assay: Broth dilution MIC determination (CLSI) against A. baumannii strains; conditions: for MIC: Acinetobacter baumannii; for MIC A. baumannii ATCC19606: ATCC19606, Strain No. MP-15
Text: as §1

[1] = van resistant, Strain No. UNT-039
[2] = GISA USA600, Strain No. MP-619 UNT-120
[3] = USA100, Strain No. MP-618 UNT-096
[4] = clinical-cErm, Strain No. MP532
[5] = mac resistant, Strain No. MP-625 UNT-014

CC[C@H]1OC(=O)[C@H](C)C(=O)[C@H](C)[C@@H](O[C@@H]2O[C@H](C)CC(N3CCCC3)C2O)[C@](C)(OC)C[C@@H](C)CN[C@H](C)[C@H]2N(CCCCn3cc(-c4cccc(N)c4)nn3)C(=O)O[C@]12C (some centres unmarked) [FSM-120361]
0.125 µg/mL: MIC (S. pneumoniae; read-out: MIC S. pneumoniae mefA, mefA, Strain No. MP-626 UNT-038) | MIC (S. pneumoniae; read-out: MIC S. pneumoniae mefA, mefA, Strain No. MP-627 UNT-039)
4 µg/mL: MIC (E. faecalis; ATCC29212, ATCC29212, Strain No. MP-24, read-out: MIC E. faecalis ATCC29212) | MIC (K. pneumoniae; ATCC10031, ATCC10031, Strain No. MP-14, read-out: MIC K. pneumoniae ATCC10031) | MIC (E. coli; ATCC25922, ATCC25922:tolC, Strain No. MP-9, read-out: MIC E. coli ATCC25922:tolC)
32 µg/mL: MIC (S. aureus; ATCC29213, ATCC29213, Strain No. MP-12, read-out: MIC S. aureus ATCC29213) | MIC (S. aureus; ATCCBAA977, ATCCBAA-977, Strain No. MP-17, read-out: MIC S. aureus ATCCBAA-977) | MIC (S. aureus; MRSA / USA300, USA300, Strain No. MP-549, read-out: MIC S. aureus (MRSA) USA300) | MIC (E. coli; ATCC25922, ATCC25922, Strain No. MP-4, read-out: MIC E. coli ATCC25922) | MIC (E. coli; clinical, Strain No. MP541, read-out: MIC E. coli clinical) | MIC (A. baumannii; ATCC19606, ATCC19606, Strain No. MP-15, read-out: MIC A. baumannii ATCC19606)
> 64 µg/mL: MIC (E. faecalis; van resistant, Strain No. UNT-039, read-out: MIC E. faecalis van resistant) | MIC (K. pneumoniae; clinical, Strain No. MP546, read-out: MIC K. pneumoniae clinical) | MIC (S. aureus; MRSA / USA100, USA100, Strain No. MP-618 UNT-096, read-out: MIC S. aureus (MRSA) USA100) | MIC (S. aureus; MRSA / USA600, GISA USA600, Strain No. MP-619 UNT-120, read-out: MIC S. aureus (MRSA) GISA USA600) | MIC (S. aureus; MRSA, ST-228 cErm, Strain No. MP-513, read-out: MIC S. aureus (MRSA) ST-228 cErm) | MIC (E. coli; clinical-cErm, Strain No. MP532, read-out: MIC E. coli clinical-cErm) | MIC (P. aeruginosa; PAO1, read-out: MIC P. aeruginosa PAO1) | MIC (P. aeruginosa; ATCC27853, Strain No. MP-3, read-out: MIC P. aeruginosa ATCC27853) | MIC (A. baumannii; clinical, Strain No. MP576, read-out: MIC A. baumannii clinical)
64 µg/mL: MIC (K. pneumoniae; clinical, Strain No. MP548, read-out: MIC K. pneumoniae clinical) | MIC (A. baumannii; clinical, Strain No. MP577, read-out: MIC A. baumannii clinical)
0.06 µg/mL: MIC (S. pyogenes; ATCC19615, ATCC19615, Strain No. MP-19, read-out: MIC S. pyogenes ATCC19615)
0.5 µg/mL: MIC (S. pyogenes; mac resistant, Strain No. MP-625 UNT-014, read-out: MIC S. pyogenes mac resistant)
16 µg/mL: MIC (P. aeruginosa; PAO1, read-out: MIC P. aeruginosa PAO1:mex)
0.25 µg/mL: MIC (S. pneumoniae; ATCC49619, ATCC49619, Strain No. MP-21, read-out: MIC S. pneumoniae ATCC49619)

CCC1OC(=O)C(C)C(=O)C(C)C(OC2OC(C)CC(n3cccc3)C2O)C(C)(OC)CC(C)CNC(C)C2N(CCCCn3cc(-c4cccc(N)c4)nn3)C(=O)OC12C (centres unmarked) [FSM-120362]
>32 µg/mL: MIC E. faecalis van resistant (E. faecalis; [1]) | MIC K. pneumoniae clinical (K. pneumoniae; clinical, Strain No. MP546) | MIC K. pneumoniae clinical (K. pneumoniae; clinical, Strain No. MP548) | MIC S. aureus (MRSA) GISA USA600 (S. aureus; [2]) | MIC S. aureus (MRSA) ermA phenotype (S. aureus) | MIC E. coli ATCC25922 (E. coli) | MIC E. coli clinical (E. coli; clinical, Strain No. MP541) | MIC E. coli clinical-cErm (E. coli; [4]) | MIC P. aeruginosa ATCC27853 (P. aeruginosa; ATCC27853, Strain No. MP-3) | MIC P. aeruginosa PAO1 (P. aeruginosa) | MIC A. baumannii clinical (A. baumannii; clinical, Strain No. MP576) | MIC A. baumannii clinical (A. baumannii; clinical, Strain No. MP577)
8 µg/mL: MIC S. pneumoniae ATCC49619 (S. pneumoniae) | MIC S. pneumoniae mefA (S. pneumoniae; Strain No. MP-627 UNT-039)
2 µg/mL: MIC S. pyogenes ATCC19615 (S. pyogenes)
>64 µg/mL: MIC K. pneumoniae ATCC10031 (K. pneumoniae) | MIC S. aureus ATCC29213 (S. aureus) | MIC S. aureus ATCCBAA-977 (S. aureus) | MIC S. aureus (MRSA) ST-228 cErm (S. aureus; ST-228 cErm, Strain No. MP-513) | MIC S. aureus (MRSA) USA100 (S. aureus; [3]) | MIC S. aureus (MRSA) USA300 (S. aureus; USA300, Strain No. MP-549) | MIC E. coli ATCC25922:tolC (E. coli; Strain No. MP-9) | MIC P. aeruginosa PAO1:mex (P. aeruginosa) | MIC A. baumannii ATCC19606 (A. baumannii)
64 µg/mL: MIC E. faecalis ATCC29212 (E. faecalis)
4 µg/mL: MIC S. pneumoniae mefA (S. pneumoniae; Strain No. MP-626 UNT-038)
16 µg/mL: MIC S. pyogenes mac resistant (S. pyogenes; [5])

CCC1OC(=O)C(C)C(=O)C(C)C(OC2OC(C)CC(N3CCOCC3)C2O)C(C)(OC)CC(C)CNC(C)C2N(CCCCn3cc(-c4cccc(N)c4)nn3)C(=O)OC12C (centres unmarked) [FSM-120367]
32 µg/mL: MIC S. pneumoniae ATCC49619 (S. pneumoniae)
8 µg/mL: MIC S. pyogenes ATCC19615 (S. pyogenes)
64 µg/mL: MIC E. faecalis ATCC29212 (E. faecalis) | MIC S. pyogenes mac resistant (S. pyogenes; [5])
>64 µg/mL: MIC E. faecalis van resistant (E. faecalis; [1]) | MIC K. pneumoniae ATCC10031 (K. pneumoniae) | MIC K. pneumoniae clinical (K. pneumoniae; clinical, Strain No. MP546) | MIC K. pneumoniae clinical (K. pneumoniae; clinical, Strain No. MP548) | MIC S. aureus ATCC29213 (S. aureus) | MIC S. aureus ATCCBAA-977 (S. aureus) | MIC S. aureus (MRSA) GISA USA600 (S. aureus; [2]) | MIC S. aureus (MRSA) ST-228 cErm (S. aureus; ST-228 cErm, Strain No. MP-513) | MIC S. aureus (MRSA) USA100 (S. aureus; [3]) | MIC S. aureus (MRSA) USA300 (S. aureus; USA300, Strain No. MP-549) | MIC S. aureus (MRSA) ermA phenotype (S. aureus) | MIC E. coli ATCC25922 (E. coli) | MIC E. coli ATCC25922:tolC (E. coli; Strain No. MP-9) | MIC E. coli clinical (E. coli; clinical, Strain No. MP541) | MIC E. coli clinical-cErm (E. coli; [4]) | MIC P. aeruginosa ATCC27853 (P. aeruginosa; ATCC27853, Strain No. MP-3) | MIC P. aeruginosa PAO1 (P. aeruginosa) | MIC P. aeruginosa PAO1:mex (P. aeruginosa) | MIC A. baumannii ATCC19606 (A. baumannii) | MIC A. baumannii clinical (A. baumannii; clinical, Strain No. MP576) | MIC A. baumannii clinical (A. baumannii; clinical, Strain No. MP577)
16 µg/mL: MIC S. pneumoniae mefA (S. pneumoniae; Strain No. MP-626 UNT-038) | MIC S. pneumoniae mefA (S. pneumoniae; Strain No. MP-627 UNT-039)

CCC1OC(=O)C(C)C(=O)C(C)C(OC2OC(C)CC(NCC(=O)O)C2O)C(C)(OC)CC(C)CNC(C)C2N(CCCCn3cc(-c4cccc(N)c4)nn3)C(=O)OC12C (centres unmarked) [FSM-120368]
32 µg/mL: MIC S. pyogenes mac resistant (S. pyogenes; [5])
8 µg/mL: MIC S. pneumoniae mefA (S. pneumoniae; Strain No. MP-627 UNT-039) | MIC S. pyogenes ATCC19615 (S. pyogenes)
16 µg/mL: MIC S. pneumoniae ATCC49619 (S. pneumoniae) | MIC S. pneumoniae mefA (S. pneumoniae; Strain No. MP-626 UNT-038)
>64 µg/mL: MIC E. faecalis ATCC29212 (E. faecalis) | MIC E. faecalis van resistant (E. faecalis; [1]) | MIC K. pneumoniae ATCC10031 (K. pneumoniae) | MIC K. pneumoniae clinical (K. pneumoniae; clinical, Strain No. MP546) | MIC K. pneumoniae clinical (K. pneumoniae; clinical, Strain No. MP548) | MIC S. aureus ATCC29213 (S. aureus) | MIC S. aureus ATCCBAA-977 (S. aureus) | MIC S. aureus (MRSA) GISA USA600 (S. aureus; [2]) | MIC S. aureus (MRSA) ST-228 cErm (S. aureus; ST-228 cErm, Strain No. MP-513) | MIC S. aureus (MRSA) USA100 (S. aureus; [3]) | MIC S. aureus (MRSA) USA300 (S. aureus; USA300, Strain No. MP-549) | MIC S. aureus (MRSA) ermA phenotype (S. aureus) | MIC E. coli ATCC25922 (E. coli) | MIC E. coli ATCC25922:tolC (E. coli; Strain No. MP-9) | MIC E. coli clinical (E. coli; clinical, Strain No. MP541) | MIC E. coli clinical-cErm (E. coli; [4]) | MIC P. aeruginosa ATCC27853 (P. aeruginosa; ATCC27853, Strain No. MP-3) | MIC P. aeruginosa PAO1 (P. aeruginosa) | MIC P. aeruginosa PAO1:mex (P. aeruginosa) | MIC A. baumannii ATCC19606 (A. baumannii) | MIC A. baumannii clinical (A. baumannii; clinical, Strain No. MP576) | MIC A. baumannii clinical (A. baumannii; clinical, Strain No. MP577)

From patent US11535643B2, “Macrolides with modified desosamine sugars and uses thereof” (President and Fellows of Harvard College, priority 2015, dated 2022)
